88 compounds from a melting point compilation (Tetko et al.; mined from patent text by program, amines drawn as free bases though some values may be those of a salt) can be followed below.

Residues, ends and D or L forms follow the SMILES beside them. *: point of attachment. Boc = CC(C)(C)OC(=O)*; Bn = c1ccc(C*)cc1

By melting point is commonly meant the temperature, or range, at which the solid turns liquid.

The compound `COc1cccc(OCC2CC2)c1-c1cc(C(=O)C2(C(=O)O)C3CC4CC(C3)CC2C4)nn1-c1ccnc2cc(Cl)ccc12` (stereo not drawn) had a melting point of 200 °C.

Regarding `COC(=O)C(Cc1ccc(OCc2ccccc2)cc1)NC(=O)C(COCc1ccccc1)NC(=O)C(Cc1c[nH]c2ccccc12)NC(=O)OC(C)(C)C` (stereo not drawn) (Boc-Trp-Ser(Bn)-Tyr(Bn)-OMe; configuration not given here), the melting point lay within 130 to 131 °C.

Regarding `ClCc1ccc(Cl)nc1Cl`, the melting point was in the range of 115 to 130 °C.

Consider `COc1cc(C(=O)C#CC(=O)N(C)C)cc(OC)c1OC`, for which the melting point fell in the range of 118 to 119 °C.

In turn, `CCOC(=O)c1c2ccc(CC(=O)NOC(=O)NCCCCN)ccc-2c(C(=O)OCC)c1N` gave a melting point of 150 °C.

`Cc1cc2c(c3ccc(=O)[nH]c13)OC(CNC=O)C2` (single isomer, unassigned; (+)) had a melting point of 282 to 284 °C.

For `Cn1c(=O)c(C(=O)C2=C(O)CCCC2=O)nc2ccccc21`, the melting point lay in the range of 191 to 192 °C.

Take `Cc1coc2cc(Cl)cc(Cl)c12`: the melting point came to 45 °C.

Consider `CC1(C)OC(=S)Nc2ccc(-c3cncc(Br)c3)cc21`, for which the melting point fell in the range of 252 to 253 °C.

Take `CCc1cccc(NC(=O)NC2N=C(c3ccccc3F)c3ccccc3N(CC(=O)N3CC4CCC(CC4)C3)C2=O)c1` (racemic): the melting point was in the range of 185 to 192 °C.

The compound `CCc1c(C(C)C)nc(C(C)C)c(CO)c1-c1ccc(F)cc1` displayed a melting point of 126 to 129 °C.

Regarding `COc1ccc2c(c1)C(=O)c1c-2c(N2CCNCC2)nc2ccccc12`, the melting point was 150 to 151 °C.

Turning to `C=CCc1cc(C(=O)c2ccc(Cl)c(S(=O)(=O)N=CN(C)C)c2)c(Cl)c(Cl)c1O`, the melting point lay in the range of 190 to 193 °C.

`CC(C)CNC(=O)C(C)NC(=O)C(C)NC(=O)C(C)NC(=O)CCC(=O)O` (stereo not drawn) displayed a melting point of 283 to 286 °C.

Consider `COC(=O)c1cc(C#N)cn1CC(=O)c1ccccc1`, for which the melting point is 169 to 172 °C.

The compound `NC(=O)N1CC(OCc2cccc(Cl)c2)C1` displayed a melting point of 163 to 166 °C.

Take `C=CCN1C(=O)C2CCc3c(ccc(OC)c3OC)C2C1=O` (stereo not drawn): the melting point was 147 to 148 °C.

Turning to `COC(=O)C(Cc1ccc(O)c(O)c1)NC(=O)OC(C)(C)C` (stereo not drawn), the melting point was in the range of 132 to 135 °C.

`CN1C(=O)NC(=O)C1O` (stereo not drawn): the melting point fell in the range of 135 to 136 °C.

In turn, `COC(=O)NC(C)(C)c1ccc(CS(=O)(=O)c2ccc(C)c(C)c2)cc1` came in with a melting point of 146 to 149 °C.

In turn, `Nc1ccc(Cl)cc1C(=O)c1ccccc1OCc1ccccc1` yielded a melting point of 110 to 111 °C.

`CCCCCCC(=O)CC(=O)c1ccccc1` yielded a melting point of 14 °C.

The compound `COc1ccccc1OCC(O)CN1CCC(N2CCNC2=O)CC1` (stereo not drawn) returned a melting point of 138 °C.

As for `Cc1oc(-c2ccccc2)nc1CCc1ccc(/C=C/C=C/CO)cc1`, the melting point fell in the range of 117 to 118 °C.

Take `N#Cc1cc(N)ccc1N1CCC(N2CCOCC2)CC1`: the melting point lay in the range of 84 to 86 °C.

Compound `COC(=O)C(C(=O)c1ccc(Cn2ccc3ccc(NC(=O)CC4CCCC4)cc32)c(OC)c1)S(=O)(=O)c1ccccc1` (stereo not drawn) came in with a melting point of 93 to 98 °C.

`CCn1cc(Br)ccc1=NC=C(S(=O)(=O)c1ccccc1)S(=O)(=O)c1ccccc1` registered a melting point of 233 to 235 °C.

In turn, `CC(=O)CN1CCc2c(c(=O)oc3cc4c(cc23)OCO4)C1` registered a melting point of 167 to 170 °C.

Compound `O=C1CCC(N2C(=O)c3cccc(Nc4ccc5c(c4)OCO5)c3C2=O)C(=O)N1` (stereo not drawn) registered a melting point greater than 260 °C.

`CCOC(=O)CCn1c(=O)c(=O)[nH]c2cc(C(F)(F)F)c(N)cc21` registered a melting point of 262 to 263 °C.

Take `c1cncc(-c2ccc(N3CCCN(c4ccc(-c5cccnc5)cn4)CC3)nc2)c1`: the melting point lay in the range of 210 to 211 °C.

`CC(C)(C)OC(=O)CO/N=C/c1cccc([N+](=O)[O-])c1`: the melting point stood at 110 °C.

`CC1=C(C(=O)OC(C)(C)C)C(c2ccccc2Br)C(C(=O)OC(C)(C)C)=C(C)N1` yielded a melting point of 162 to 164 °C.

In the case of `O=c1c(Br)c(OCc2ccc(F)cc2)ccn1Cc1cccc(F)c1`, the melting point lay in the range of 180 to 183 °C.

For the compound `CCN1OCC(=Cc2cc(C(C)(C)C)c(O)c(C(C)(C)C)c2)C1=O`, the melting point is 189 to 191 °C.

Regarding `CC(=O)c1c(C)nc(C)c(C(=O)OCCC#N)c1-c1cccc([N+](=O)[O-])c1`, the melting point came out at 85 °C.

Regarding `OC(c1ccccn1)c1cc2ccncc2[nH]1` (stereo not drawn), the melting point is 166 to 169 °C.

Regarding `CNC1=NS(=O)N=C1NCCSCc1csc(NC(=N)N)n1` (stereo not drawn), the melting point lay in the range of 175 to 177 °C.

In turn, `Cc1cc(NC(=O)C2=C(O)CN(C)S(=O)(=O)N2C)no1` had a melting point of 189 to 192 °C.

Compound `CC1(c2cc(-c3ccc(F)cc3F)cc(C(=O)Nc3ccc(S(=O)(=O)C(F)(F)F)cc3Cl)c2O)CCCCC1` came in with a melting point of 114 to 115 °C.

Take `CCCCOc1ccc(NC(=O)c2cnc(C(=O)OC)c(Cl)c2)cc1`: the melting point lay in the range of 121 to 123 °C.

Turning to `CCOC1CC2(C)C(CCC3C4CC=CC4(C)CC(N(C)C)C32)CC1O` (stereo not drawn), the melting point is 51 to 54 °C.

`CCCc1c(O)cc2oc3cccn3c(=O)c2c1O` gave a melting point of 170 to 171 °C.

Consider `O=C(c1ccc(Cl)cc1)c1cccc(CBr)c1`, for which the melting point was 123 to 125 °C.

The compound `CC1(C)CC(=O)c2c(S(C)(=O)=O)sc(C(=O)N3CCCC3)c2C1` gave a melting point of 161 °C.

In the case of `CCCc1nc2c(N)nc3ccccc3c2n1CCOCCCS(C)=O` (stereo not drawn), the melting point lay within 148 to 151 °C.

As for `COC(=O)NNC(=O)c1ccc([N+](=O)[O-])o1`, the melting point amounted to 155 °C.

On to `COc1ccc(C#CC(C)N(O)C(N)=O)cc1` (stereo not drawn), for which the melting point was in the range of 144 to 146 °C.

`COc1ccc(CNC(=O)c2cc([N+](=O)[O-])ccc2N[C@H]2CC[C@@H](OC(C)=O)CC2)cc1OC` yielded a melting point of 147 to 148 °C.

On to `CCN(CC)c1nc(Cl)nc(Cl)n1`, for which the melting point fell in the range of 77 to 79 °C.

In the case of `Cc1cccc(NC(=O)NCC(=O)N(CC(=O)OC(C)(C)C)c2ccccc2)c1`, the melting point came out at 180 °C.

On to `C[C@H](NC(=O)OCc1ccccc1)C(=O)c1ccc(OCc2ccccc2)cc1`, for which the melting point was in the range of 89 to 91 °C.

The compound `COC(=O)C(C)=Cc1ccc(O)cc1` registered a melting point of 103 to 104 °C.

Turning to `CCOC(=O)c1c(C(F)(F)F)nc(OC)c(C#N)c1OC`, the melting point lay in the range of 32 to 34 °C.

Compound `COC(=O)C1=C(C)NC(C)=C(P2(=O)OCCCO2)C1c1cccc([N+](=O)[O-])c1` (stereo not drawn) had a melting point of 221 to 223 °C.

Regarding `O=C(Nc1cccc(S(=O)(=O)Nc2ccccc2)c1)c1cnn2c(C(F)(F)F)cc(-c3ccc(C(F)(F)F)cc3)nc12`, the melting point was determined as 258 °C.

Turning to `CC(=O)SC[C@H](NC(=O)C(C)C)C(=O)NCCSC(=O)C(C)C`, the melting point is 100 to 102 °C.

Take `CCCCOC(=O)c1cccc2nc(CCCC)n(Cc3ccc(-c4ccccc4-c4nnn[nH]4)cc3)c12`: the melting point fell in the range of 192 to 193 °C.

`CCOC(=O)c1cc2n(c1)CN(C(=O)OCC)c1ccccc1-2` registered a melting point of 80 to 82 °C.

Consider `COc1ccccc1C=C1N=C(c2ccccc2)OC1=O`, for which the melting point lay within 159 to 161 °C.

As for `Cc1cccc(N2CCN(CCCCCC(=O)N3Cc4ccccc4C3)CC2)c1C#N`, the melting point is 126 °C.

As for `CNC(=S)NS(=O)(=O)c1cc(CCNC(=O)c2cc(C(C)(C)C)ccc2OC)ccc1OCCOC`, the melting point amounted to 61 °C.

In turn, `O=C(c1ccc(Nc2ccncc2)cc1)N1CCCCC1` had a melting point of 170 to 172 °C.

The compound `O=C(c1ccc(Cl)cc1)C(Br)c1ccc(Cl)cc1` (stereo not drawn) came in with a melting point of 81.5 to 83 °C.

Take `C=C(C(=O)c1ccccc1)c1cccnc1`: the melting point was in the range of 113 to 114 °C.

For `Cc1cc(C#N)cc(C(=O)Nc2ccc(F)c(Cl)c2)n1`, the melting point worked out at 204 °C.

As for `O=C(NCCO)c1cccc(-c2cccc3nn(Cc4ccc(F)c(Cl)c4)cc23)c1`, the melting point lay in the range of 177 to 178 °C.

In the case of `Cc1ccc(C(=O)Nc2ccc(N3CCN(C(=O)OC(C)(C)C)CC3)cc2)c(-c2ccc(C(C)C)cc2)c1`, the melting point lay within 173 to 175 °C.

In the case of `COc1ccc(-c2nc3ccc(CBr)cc3o2)cc1`, the melting point is 137 to 138 °C.

`CN[C@@H](CSC(c1ccccc1)(c1ccccc1)c1ccccc1)C(=O)O`: the melting point turned out to be 114 °C.

With `CCOC(=O)c1cc2ccc3sc4ccccc4c3c2n1C`, the melting point is 85 to 86 °C.

Consider `Cc1cccc(/C=C/c2nc(COc3ccc(CCCCn4ccnc4CCO)cc3)co2)c1`, for which the melting point fell in the range of 109 to 111 °C.

The compound `COC(=O)c1ccc(NCc2cccc(F)c2)cc1` came in with a melting point of 107 to 110 °C.

As for `CC(=O)c1cnc(-c2ccccc2)nc1-c1ccccc1`, the melting point lay in the range of 100 to 108 °C.

Compound `CN(C)C(=O)Cc1ccc(CC(=O)O)cc1` registered a melting point of 163 to 165 °C.

Compound `CNS(=O)(=O)Cc1ccc2[nH]cc(CCN=CNc3cccnc3)c2c1` registered a melting point of 70 to 71 °C.

For the compound `CCCCCc1c(C(C)C)nc(C(C)C)c(CO)c1-c1ccc(F)c(F)c1`, the melting point fell in the range of 106 to 107 °C.

In turn, `CCCCOc1cc(Oc2ccc(C(F)(F)F)cn2)ccc1CCCOc1c(CC(=O)O)cccc1OC` came in with a melting point of 64 to 65 °C.

`CC(=O)NC(CCCCN)C(=O)C(N)C(CC1(C(=O)NC2CCC(C(=O)O)CC2)CCCC1)C(=O)O` (stereo not drawn) came in with a melting point of 161 to 163 °C.

In turn, `COc1ccc(OC)c2c1C(=O)C=C(SCCCCO)C2=O` had a melting point of 122 to 123 °C.

`COC(=O)c1ccc(OCCCOc2cc3c(cc2O)CCO3)cc1`: the melting point fell in the range of 133 to 135 °C.

Compound `CC(Cl)OC(=O)Oc1c(Br)cc(C#N)cc1Br` (stereo not drawn) had a melting point of 91 to 93 °C.

On to `CCOc1ccc(CC2CCN(CCCCNC(=O)c3ccc(-c4ccc(C(F)(F)F)cc4)cc3)CC2)c(OCC)c1`, for which the melting point fell in the range of 136 to 137 °C.

The compound `CCOC(=O)c1cccc2oc(C=O)cc12` returned a melting point of 88 to 89 °C.

In turn, `NS(=O)(=O)c1cccc(NC(=O)Nc2c(F)c(F)c(F)c(F)c2F)c1` showed a melting point of 224 to 227 °C.

Compound `CCCCOC(=O)CCCOc1ccc(F)c(C(N)=O)c1F` showed a melting point of 53 to 55 °C.

The compound `c1ccc(-c2cc(-c3csc(Nc4ccccn4)n3)on2)cc1` gave a melting point of 211 to 215 °C.

`NC(=O)NC(=O)c1coc2ccccc2c1=O` returned a melting point of 200 to 217 °C.
